Experimental data published in PubChem BioAssay AID1745844 (Carcinogenic Potency Database (CPDB), 2022).
Calls of active or inactive are those of the source. How the calls were made is not given here.

Test system: rodent lifetime carcinogenesis bioassay, tumor incidence TD50
Assay: chronic cancer bioassays in animals – CPDB, compiled studies (AID 1745844)
[1] = mouse, strain Charles River CD1, females, in feed, site: any site (literature study), lesion: several types, types named in the paper, dosed 104 weeks, study length 104 weeks
[2] = mouse, strain Charles River CD1, females, in feed, site: liver, lesion: hepatocellular adenoma, dosed 104 weeks, study length 104 weeks
[3] = mouse, strain Charles River CD1, females, in feed, site: liver, lesion: hepatocellular carcinoma, dosed 104 weeks, study length 104 weeks
[4] = mouse, strain Charles River CD1, males, in feed, site: any site (literature study), lesion: several types, types named in the paper, dosed 104 weeks, study length 104 weeks
[5] = mouse, strain Charles River CD1, males, in feed, site: liver, lesion: hepatocellular adenoma, dosed 104 weeks, study length 104 weeks
[6] = mouse, strain Charles River CD1, males, in feed, site: liver, lesion: hepatocellular carcinoma, dosed 104 weeks, study length 104 weeks

CC1(C)[C@H](C(=O)O[C@H](C#N)c2cccc(Oc3ccccc3)c2)[C@@H]1C=C(Br)Br
inactive: carcinogen call (mouse, strain C57BL/6, females, by gavage, site: all sites, lesion: lymphoma, dosed 104 weeks, study length 114 weeks) negative | carcinogen call (mouse, strain C57BL/6, females, by gavage, site: any site (literature study), lesion: one or several types, types not named, dosed 104 weeks, study length 114 weeks) negative | carcinogen call (mouse, strain C57BL/6, females, by gavage, site: liver, lesion: hepatoma, dosed 104 weeks, study length 114 weeks) negative | carcinogen call (mouse, strain C57BL/6, females, by gavage, site: lung, lesion: adenoma, dosed 104 weeks, study length 114 weeks) negative | carcinogen call (mouse, strain C57BL/6, males, by gavage, site: any site (literature study), lesion: one or several types, types not named, dosed 104 weeks, study length 114 weeks) negative | carcinogen call (mouse, strain C57BL/6, males, by gavage, site: liver, lesion: hepatoma, dosed 104 weeks, study length 114 weeks) negative | carcinogen call (mouse, strain C57BL/6, males, by gavage, site: lung, lesion: adenoma, dosed 104 weeks, study length 114 weeks) negative | TD50 (rat, strain BD VI, females, by gavage, site: any site (literature study), lesion: one or several types, types not named, dosed 104 weeks, study length 114 weeks) 36.1 mg/kg/day | carcinogen call (rat, strain BD VI, females, by gavage, site: liver, lesion: hepatoma, dosed 104 weeks, study length 114 weeks) negative | TD50 (rat, strain BD VI, females, by gavage, site: thyroid gland, lesion: adenoma, dosed 104 weeks, study length 114 weeks) 16.9 mg/kg/day | carcinogen call (rat, strain BD VI, males, by gavage, site: any site (literature study), lesion: one or several types, types not named, dosed 104 weeks, study length 114 weeks) negative | carcinogen call (rat, strain BD VI, males, by gavage, site: liver, lesion: hepatoma, dosed 104 weeks, study length 114 weeks) negative | TD50 (rat, strain BD VI, males, by gavage, site: thyroid gland, lesion: adenoma, dosed 104 weeks, study length 114 weeks) 4.6 mg/kg/day

OC[C@H]1O[C@H](O[C@]2(CCl)O[C@H](CCl)[C@@H](O)[C@@H]2O)[C@H](O)[C@@H](O)[C@H]1Cl
inactive: carcinogen call [1] negative | carcinogen call [2] negative | TD50 [3] 98200 mg/kg/day | carcinogen call (mouse, strain Charles River CD1, females, in feed, site: lung, lesion: adenoma, dosed 104 weeks, study length 104 weeks) negative | carcinogen call (mouse, strain Charles River CD1, females, in feed, site: lung, lesion: carcinoma, dosed 104 weeks, study length 104 weeks) negative | carcinogen call [4] negative | carcinogen call [5] negative | carcinogen call [6] negative | TD50 (mouse, strain Charles River CD1, males, in feed, site: lung, lesion: adenoma, dosed 104 weeks, study length 104 weeks) 35100 mg/kg/day | carcinogen call (mouse, strain Charles River CD1, males, in feed, site: lung, lesion: carcinoma, dosed 104 weeks, study length 104 weeks) negative

O=C(Nc1nc(-c2ccc([N+](=O)[O-])o2)cs1)C(F)(F)F
5.58 mg/kg/day: TD50 (rat, strain Sprague-Dawley, females, in feed, site: any site (literature study), lesion: several types, types named in the paper, dosed 46 weeks, study length 66 weeks)
7.27 mg/kg/day: TD50 (rat, strain Sprague-Dawley, females, in feed, site: mammary gland, lesion: adenocarcinoma, dosed 46 weeks, study length 66 weeks)
43.5 mg/kg/day: TD50 (mouse, strain Swiss, females, in feed, site: forestomach, lesion: squamous-cell papilloma, dosed 46 weeks, study length 55 weeks)
active: TD50 (mouse, strain Swiss, females, in feed, site: forestomach, lesion: several types, types named in the paper, dosed 46 weeks, study length 55 weeks) 9.98 mg/kg/day | TD50 (rat, strain Sprague-Dawley, females, in feed, site: mammary gland, lesion: several types, types named in the paper, dosed 46 weeks, study length 66 weeks) 6.79 mg/kg/day
38.6 mg/kg/day: TD50 (mouse, strain Swiss, females, in feed, site: forestomach, lesion: squamous-cell carcinoma, dosed 46 weeks, study length 55 weeks)
8.01 mg/kg/day: TD50 (mouse, strain Swiss, females, in feed, site: any site (literature study), lesion: several types, types named in the paper, dosed 46 weeks, study length 55 weeks)

O=C([O-])c1cc(N=Nc2ccc(-c3ccc(N=Nc4c(O)ccc(N=Nc5cc(S(=O)(=O)[O-])ccc5[O-])c4[O-])cc3)cc2)ccc1O.[Cu+2].[Na+].[Na+]
2.07 mg/kg/day: TD50 (rat, strain Fischer 344, females, in feed, site: any site (literature study), lesion: several types, types named in the paper, dosed 13 weeks, study length 13 weeks) | TD50 (rat, strain Fischer 344, females, in feed, site: liver, lesion: hepatocellular adenoma + hepatocellular carcinoma + neoplastic nodule, dosed 13 weeks, study length 13 weeks)
active: TD50 (rat, strain Fischer 344, females, in feed, site: liver, lesion: hepatocellular carcinoma + neoplastic nodule, dosed 13 weeks, study length 13 weeks) 2.07 mg/kg/day
inactive: carcinogen call (rat, strain Fischer 344, males, in feed, site: any site (literature study), lesion: several types, types named in the paper, dosed 13 weeks, study length 13 weeks) negative

C=C(C)C#N
160 mg/kg/day: TD50 (mouse, strain B6C3F1, males, by gavage, site: lung, lesion: alveolar/bronchiolar adenoma + alveolar/bronchiolar carcinoma, dosed 104 weeks, study length 104 weeks)
178 mg/kg/day: TD50 (mouse, strain B6C3F1, females, by gavage, site: lung, lesion: alveolar/bronchiolar adenoma + alveolar/bronchiolar carcinoma, dosed 104 weeks, study length 104 weeks)
inactive: carcinogen call (mouse, strain B6C3F1, females, by gavage, site: any site (literature study), lesion: several types, types named in the paper, dosed 104 weeks, study length 104 weeks) negative | carcinogen call (mouse, strain B6C3F1, males, by gavage, site: any site (literature study), lesion: several types, types named in the paper, dosed 104 weeks, study length 104 weeks) negative | TD50 (rat, strain Fischer 344, females, by gavage, site: any site (literature study), lesion: several types, types named in the paper, dosed 104 weeks, study length 104 weeks) 323 mg/kg/day | TD50 (rat, strain Fischer 344, males, by gavage, site: subcutaneous tissue, lesion: fibrosarcoma + fibrous histiocytoma + sarcoma, dosed 104 weeks, study length 104 weeks) 205 mg/kg/day

CC(/C=C/C=C(\C)C(=O)O[C@@H]1O[C@H](CO[C@@H]2O[C@H](CO)[C@@H](O)[C@H](O)[C@H]2O)[C@@H](O)[C@H](O)[C@H]1O)=C\C=C\C=C(C)\C=C\C=C(/C)C(=O)O[C@@H]1O[C@H](CO[C@@H]2O[C@H](CO)[C@@H](O)[C@H](O)[C@H]2O)[C@@H](O)[C@H](O)[C@H]1O
inactive: carcinogen call (mouse, strain C57BL/6N, females, in drinking water, site: liver, lesion: hepatoma, dosed 95 weeks, study length 95 weeks) negative | carcinogen call (mouse, strain C57BL/6N, females, in drinking water, site: lung, lesion: one or several types, types not named, dosed 95 weeks, study length 95 weeks) negative | carcinogen call (mouse, strain C57BL/6N, males, in drinking water, site: liver, lesion: hepatoma, dosed 95 weeks, study length 95 weeks) negative | carcinogen call (mouse, strain C57BL/6N, males, in drinking water, site: lung, lesion: one or several types, types not named, dosed 95 weeks, study length 95 weeks) negative

OC(Cn1cncn1)(Cn1cncn1)c1ccc(F)cc1F
inactive: carcinogen call [1] negative | TD50 [2] 129 mg/kg/day | carcinogen call [3] negative | TD50 [4] 239 mg/kg/day | TD50 [5] 144 mg/kg/day | carcinogen call [6] negative | carcinogen call (rat, strain Charles River CD (Sprague-Dawley), females, in feed, site: any site (literature study), lesion: several types, types named in the paper, dosed 104 weeks, study length 104 weeks) negative | TD50 (rat, strain Charles River CD (Sprague-Dawley), females, in feed, site: liver, lesion: hepatocellular adenoma, dosed 104 weeks, study length 104 weeks) 298 mg/kg/day | carcinogen call (rat, strain Charles River CD (Sprague-Dawley), females, in feed, site: liver, lesion: hepatocellular carcinoma, dosed 104 weeks, study length 104 weeks) negative | TD50 (rat, strain Charles River CD (Sprague-Dawley), females, in feed, site: mammary gland, lesion: adenoma, dosed 104 weeks, study length 104 weeks) 412 mg/kg/day | carcinogen call (rat, strain Charles River CD (Sprague-Dawley), females, in feed, site: mammary gland, lesion: carcinoma, dosed 104 weeks, study length 104 weeks) negative | carcinogen call (rat, strain Charles River CD (Sprague-Dawley), females, in feed, site: mammary gland, lesion: fibroadenoma, dosed 104 weeks, study length 104 weeks) negative | carcinogen call (rat, strain Charles River CD (Sprague-Dawley), females, in feed, site: mammary gland, lesion: several types, types named in the paper, dosed 104 weeks, study length 104 weeks) negative | carcinogen call (rat, strain Charles River CD (Sprague-Dawley), males, in feed, site: adrenal medulla, lesion: pheochromocytoma, dosed 104 weeks, study length 104 weeks) negative | carcinogen call (rat, strain Charles River CD (Sprague-Dawley), males, in feed, site: any site (literature study), lesion: several types, types named in the paper, dosed 104 weeks, study length 104 weeks) negative
active: TD50 (rat, strain Charles River CD (Sprague-Dawley), males, in feed, site: liver, lesion: hepatocellular adenoma, dosed 104 weeks, study length 104 weeks) 80.7 mg/kg/day

NC(=S)C(N)=S
12.6 mg/kg/day: TD50 (rat, strain Charles River CD (Sprague-Dawley), females, in feed, site: mammary gland, lesion: one or several types, types not named, dosed 78 weeks, study length 104 weeks)

CCN(N=O)C(=O)NCCO
active: TD50 (hamster, strain Syrian Golden, females, by gavage, site: cervix uteri, lesion: one or several types, types not named, dosed 30 weeks, study length 75 weeks) 1.04 mg/kg/day | TD50 (hamster, strain Syrian Golden, females, by gavage, site: forestomach, lesion: benign tumor, dosed 30 weeks, study length 75 weeks) 1.76 mg/kg/day | TD50 (hamster, strain Syrian Golden, females, by gavage, site: spleen, lesion: all vascular tumors, dosed 30 weeks, study length 75 weeks) 3.05 mg/kg/day | TD50 (rat, strain Fischer 344, females, in drinking water, site: mammary tissue, wider than the gland, lesion: carcinoma, dosed 30 weeks, study length 104 weeks) 0.748 mg/kg/day | TD50 (rat, strain Fischer 344, females, in drinking water, site: skin, lesion: one or several types, types not named, dosed 30 weeks, study length 104 weeks) 0.956 mg/kg/day | TD50 (rat, strain Fischer 344, females, in drinking water, site: uterus, lesion: one or several types, types not named, dosed 30 weeks, study length 104 weeks) 0.972 mg/kg/day | TD50 (rat, strain Fischer 344, males, in drinking water, site: skin, lesion: one or several types, types not named, dosed 30 weeks, study length 104 weeks) 0.401 mg/kg/day
0.226 mg/kg/day: TD50 (rat, strain Fischer 344, males, in drinking water, site: tunica vaginalis, lesion: mesothelioma, dosed 30 weeks, study length 104 weeks)
0.39 mg/kg/day: TD50 (rat, strain Fischer 344, males, in drinking water, site: lung, lesion: one or several types, types not named, dosed 30 weeks, study length 104 weeks)
0.769 mg/kg/day: TD50 (rat, strain Fischer 344, males, in drinking water, site: nervous system, lesion: one or several types, types not named, dosed 30 weeks, study length 104 weeks)
0.714 mg/kg/day: TD50 (rat, strain Fischer 344, females, in drinking water, site: nervous system, lesion: one or several types, types not named, dosed 30 weeks, study length 104 weeks)
27.5 mg/kg/day: TD50 (hamster, strain Syrian Golden, females, by gavage, site: liver, lesion: cholangioma, dosed 30 weeks, study length 75 weeks)
